Patent US20260055081A1, “Metal Chelator Compounds, Coordination Complexes, and Methods of Preparation and Use Thereof” (University of Puerto Rico, priority 2022, published 2026)

How the values were obtained:
[1] = tested on: Prostate cancer cell lines; assay: NCI 60 five-dose screen, prostate panel; type: cell-based, human; conditions: 48 h
Method: (§1) National Cancer Institute Cancer Cell Line (NCI 60) Screen of DefNEtTrp. Details of the methodology for NCI 60 cell line screening are described at http://dtp.nci.nih.gov/branches/btb/ivclsp.html. The cells, grown in supplemented RPMI-1640 medium, are seeded in 96 well plates at an appropriate density and incubated for 24 h. The test compounds are dissolved in DMSO and incubated with cells at a single dose of 10.0 μM for 48 h. The assay is terminated by addition of cold trichloroacetic acid, and the cells are fixed and stained with sulforhodamine B. Bound stain is solubilized, and the absorbance is read on an automated plate reader. […] Using the seven absorbance measurements [time zero, […], control growth, (C), and test growth in the presence of drug at the five concentration levels (Tf)], the percentage growth was calculated at each of the drug concentrations levels as: [(Tf−Ti)/(C−Ti)]×100 for concentrations for which Tf≥Ti and [(Tf−Ti)/Ti]×100 for concentrations for which Tf<Ti. Three-dose response parameters (GI50, TGI, and LC50) were calculated for each of the experimental agents in five dose assay. […] The total growth inhibition (TGI) was calculated from Tf=Ti, which was the drug concentration resulting in total growth inhibition and signified the cytostatic effect. […]

[2] = tested on: Breast cancer cell lines; assay: NCI 60 five-dose screen, breast panel; type: cell-based, human; conditions: 48 h
Method: as §1

[3] = tested on: Jurkat cells; assay: Fe(III) supplementation cell viability study; type: cell-based, human; conditions: Jurkat supplemented with 2 μM and 5 μM Fe(III) as Fe(Citrate)2 two hours before 2 μM DefNEtTrp, 72 h
Method: Fe(III) supplementation cell viability study. Jurkat cells were seeded into 96-well plates, as indicated in the MTT assay described above. One group of cells was supplemented with 2 μM [Fe(citrate)2]^5− (prepared in situ) while another was supplemented with 5 μM [Fe(citrate)2]^5−. Another group of cells were treated with media alone. After 2 h incubation, half of the cells supplemented with [Fe(citrate)2]^5− were treated with 2 μM DefNEtTrp while the other half was treated with media alone. The final percentage of DMF was maintained at 0.5% (v/v). The MTT assay was performed with these samples (n=6). A student t-test was performed to evaluate the difference in the viability of cells treated with DefNEtTrp and supplemented with and without [Fe(citrate)2]^5−.

[4] = tested on: Jurkat cells; assay: Ferroptosis mechanistic cell viability study (ferrostatin-1); type: cell-based, human; conditions: 10 μM Fer-1 pretreatment, 2 μM DefNEtTrp, 72 h
Method: Ferroptosis mechanistic cell viability study. Jurkat cells were seeded into 96-well plates, as indicated in the MTT assay described above The cells were treated with 10 μM of the ferroptosis inhibitor ferrostatin-1 (Fer-1). Another group of cells were treated with media alone. After 1 h incubation, half of the cells supplemented with Fer-1 were treated with 2 μM DefNEtTrp or 25 μM [Fe(citrate)2]^5−, as positive control, while the other half was treated with media alone. The final percentage of DMF was maintained at 0.5% (v/v). The MTT assay was performed with these samples (n=6). A student t-test was performed to evaluate the difference in the viability of cells treated with DefNEtTrp or [Fe(citrate)2]^5− and supplemented with and without Fer-1.

[5] = target: T1, Fe(III)-saturated serum transferrin (Fe2-sTf) (Homo sapiens, UniProt P02787); assay: Scavenging of Fe(III) from Fe(III)-saturated serum transferrin; type: biochemical; conditions: 22.5 μM Fe2-sTf with 45 μM DefNEtTrp, pH 7.4, 25° C., monitored over 3 days
T1 construct: purchased Sigma T2036
Method: The ability of DefNEtTrp to scavenge Fe(ITT) from Fe(ITI)-saturated serum transferrin(Fe2-sTf) was also examined. Fe2-sTf was prepared by reacting micromolar amounts of apo-sTf with 4 mol equiv of in situ prepared [Fe(citrate)2]^5− in 20 mM Hepes buffer (pH 7.4) containing 0.1 M NaCl and 27 mM NaHCO3. The sample was extensively dialyzed by rapid spin dialysis to remove the excess unbound Fe(III). The Fe(III) content was determined by the ferrozine colorimetric assay modified from a literature protocol and by monitoring the Fe2-STf-(CO3)2 LMCT band (λmax 465 nm; ε=5200 M^−1 cm^−1) (Viollier 2000, The ferrozine method revisited: Fe(II)/Fe(III) determination in natural waters. Appl. Geochem. 15 (6): 785-790). To 22.5 μM Fe2-sTf was reacted 45 μM DefNEtTrp (diluted in the same protein buffer while maintaining 5% DMF) in quadruplicate at 25° C. The reaction solutions were left to equilibrate and the LMCT absorbance was monitored after 24 h and 72 h. The reaction solutions were extensively dialyzed and then the protein concentrations were quantified by the Bradford colorimetric assay. The UV-Vis spectra of the washed protein samples were collected.

[6] = Aqueous solubility (observation); type: physicochemical
[7] = cell lines in which TGI was observed
[8] = Homo sapiens, read-out: GI50 (calculated average)

T1 sequence (P02787 20-698): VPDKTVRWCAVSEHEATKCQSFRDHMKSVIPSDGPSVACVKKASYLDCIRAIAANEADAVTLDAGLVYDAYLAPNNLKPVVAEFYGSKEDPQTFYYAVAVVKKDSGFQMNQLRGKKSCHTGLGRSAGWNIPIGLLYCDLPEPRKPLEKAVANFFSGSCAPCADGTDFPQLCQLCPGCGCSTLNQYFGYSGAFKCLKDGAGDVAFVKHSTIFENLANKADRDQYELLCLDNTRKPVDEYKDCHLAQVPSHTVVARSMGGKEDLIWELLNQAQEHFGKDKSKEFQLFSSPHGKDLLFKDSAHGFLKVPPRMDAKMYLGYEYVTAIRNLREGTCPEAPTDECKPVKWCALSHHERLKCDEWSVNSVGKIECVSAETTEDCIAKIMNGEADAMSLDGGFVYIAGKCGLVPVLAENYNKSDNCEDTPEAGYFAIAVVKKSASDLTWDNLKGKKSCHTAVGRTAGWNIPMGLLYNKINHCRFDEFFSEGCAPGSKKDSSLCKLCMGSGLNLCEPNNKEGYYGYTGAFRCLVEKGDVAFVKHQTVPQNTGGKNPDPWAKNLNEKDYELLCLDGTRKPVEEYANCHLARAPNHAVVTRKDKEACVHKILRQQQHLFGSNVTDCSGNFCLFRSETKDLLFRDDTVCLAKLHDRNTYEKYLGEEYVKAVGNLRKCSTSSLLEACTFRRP

In the case of `Nc1cccnc1/C=N/NC(=S)NCCNC(=O)c1ccc(-n2nc(-c3ccccc3O)nc2-c2ccccc2O)cc1` [DefNEtTrp, deferasirox nitrogen ethyl triapine], the “TGI (calculated average)” value [1, 7] is reported as 18200 nM, the GI50 [1, 8] is reported as 1140 nM and the “TGI (calculated average)” value [2, 7] is reported as 4840 nM. The GI50 [2, 8] was 450 nM, the “viability relative to the non-supplemented group” value [3] was “significant increase in viability” and the “change in cell viability of cells pretreated with Fer-1” value [4] was “two-fold increase in the cell viability”. For the same compound, the “removal of Fe(III) from Fe2-sTf (LMCT absorbance 465 nm)” value [5] was “no metal dissociation” and the water solubility [6] was “limited water solubility”.
